Measurements published in PubChem BioAssay (NCI).
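Cells were grown in 96-well plates and exposed to each compound for 48 hours at five concentrations; endpoints were interpolated linearly between bracketing concentrations, or set to the highest concentration if not reached. Here, GI50 denotes the concentration required for 50% inhibition of growth. TGI: concentration producing complete growth inhibition.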

System: MDA-MB-468 breast
Assay: NCI-60 cell line screen, 48 h

Compound | GI50 [µM] | TGI [µM]
Nc1nc2ccc([C@@H]3Nc4ccc5[nH]ncc5c4[C@H]4[C@H]5CCC(C5)[C@H]43)cc2s1 | 0.403 | 2.53
COc1ncc(-c2nc3c(n2C(C)C)[C@H](c2ccc(Cl)cc2)N(c2cc(Cl)cn(C)c2=O)C3=O)c(OC)n1 | 18.2 | 71.4
CCCCCCCCOc1ccc(/C=N/Nc2cc(C)nc3ccc(Cl)cc23)cc1 | 1.79 | 3.42
O=C(Oc1ccc([N+](=O)[O-])cc1)N1CCN(Cc2cccc(Oc3ccccc3)c2)CC1 | 19.1 | > 100
COC(=O)[C@]12CC[C@@H](C)[C@H](C)[C@@H]1C1=CC[C@@H]3[C@@]4(C)C(C=O)=C[C@@](C)(COC(C)=O)[C@@H]4[C@H](O)C[C@@]3(C)[C@]1(C)CC2 | 2.04 | 4.4
CS(=O)(=O)N1CCN(Cc2cc3nc(-c4cccc5[nH]ncc45)nc(N4CCOCC4)c3s2)CC1 (tested in a mixture with another compound) | 0.109 | 0.697
N#C/C(=C\c1ccc(Br)cc1)n1nnc2cccc(F)c21 | 0.327 | 1.15
CN(C)CCNC(=O)c1cccc2cc3ccccc3nc12 | 1.26 | 4.21
COc1cc(NN=C(c2ccc(O)cc2)c2ccc(O)cc2)c([N+](=O)[O-])cc1[N+](=O)[O-] | 12.5 | 25
CN1CCN(CC(=O)Nc2ccc3ncnc(Nc4ccc(Oc5cccc(C(F)(F)F)c5)c(Cl)c4)c3c2)CC1 | 1.16 | 2.66
C=C1C(=O)O[C@H]2[C@H]1CC/C(COC(=O)C(=O)c1c[nH]c3ccc(OC)cc13)=C\CC[C@@]1(C)O[C@@H]21 | 2.17 | 4.77
N#CC1C(=N)Cc2ccccc2-c2ccccc21 (centres undefined) | 3.15 | 13.4
Nc1ccn([C@H]2C[C@@H](O)[C@@H](CO)S2)c(=O)n1 | > 100 | > 100
O=C1C(Cl)=C(Nc2ccc3cn[nH]c3c2)C(=O)c2ccccc21 | 1.14 | 2.4
COc1ccc(/C=C(/C(=O)N2CCCC2)c2cc(OC)c(OC)c(OC)c2)cc1N | 1.28 | > 100
O=C(Nc1cnn2ccc(N3CCC[C@@H]3c3cc(F)ccc3F)nc12)N1CC[C@H](O)C1 | > 100 | > 100
Nc1c(C(=O)c2cccc(OCCN3CCOCC3)c2)cnn1-c1ccc(F)cc1 | > 25 | > 25
O=C1/C(=C/c2ccccc2)SC(=Nc2ccccc2)N1Nc1ccccc1 | 14 | > 100
Cc1ccc(S(=O)(=O)Oc2ccc3c4c(c(=O)oc3c2)CCCCC4)cc1 | 2.77 | > 100

Compound | GI50 [µM] | TGI [µM]
COc1ccc2nc(NCCCNCCO)c3sc4ccc(F)cc4c(=O)c3c2c1 | 1.71 | 3.28
Cc1ccc(N=C2CSc3nnc(-c4csc5c4CCCC5)n3N2)cc1 | 0.142 | > 50
NC1=NC(c2ccccc2)N=C(Nc2ccccc2)N1 (centres undefined) | 44.4 | > 100
COc1ccc(-c2cnc(-c3ccc(F)cc3)[nH]2)cc1 | 2.22 | 7
CN1CCN(c2ccc(-c3cnc4c(-c5csc6ccccc56)cnn4c3)cc2)CC1 | > 15 | > 15
Nc1ccc(C#Cc2cncnc2Nc2ccc(OCc3cccc(F)c3)c(Cl)c2)cc1 | 1.15 | 9.24
C=C(CNCCc1ccc(O)cc1)[C@@H]1CC[C@]2(CO)CC[C@]3(C)[C@H](CC[C@@H]4[C@@]5(C)CCC(=O)C(C)(C)[C@@H]5CC[C@]43C)[C@@H]12 | 1.53 | 3.1
COc1ccc(C2NCCc3c2[nH]c2ccccc32)cc1CN1CCN(c2ccc(F)cc2)CC1 (centres undefined) | 1.67 | 3.36
C/C=C(\C)C(=O)O[C@@H]1C(O)[C@H]2OC(COC(=O)CCC(=O)CCCCCC[C@H](CCCCC)O[C@@H]3OC(C)[C@H](OC(C)=O)C(O)[C@H]3O2)[C@H]1OC(=O)/C=C/c1ccccc1 (some centres undefined) | < 0.01 | 1.18
COc1cc2cc(Oc3ccc(NC(=O)Nc4ccccc4)cc3)c(C)nc2cc1OCCN1CCCCC1 | 5.64 | 10.8
Cn1ccc(=Nc2ccc(NC(=O)c3ccc(N=c4ccn(C)c5ccc([N+](=O)[O-])cc45)cc3)cc2)cc1 | 7.28 | > 100
CCNC(=O)Oc1ccc(/C(=C(/C)c2ccc(Cl)cc2)c2ccc(OCCN3CCCCCC3)cc2)cc1 | 1.44 | 3.07
CCOC(=O)/C=C1\SC(=Nc2ccc(C#N)cc2)N(CCN2C(=O)/C(=C/C(=O)OCC)SC2=Nc2ccc(C#N)cc2)C1=O | 3.1 | 17.4
CC[N+](CC)=c1ccc2nc3c(cc(NCc4ccccc4)c4ccccc43)oc-2c1 | 0.134 | 1.07
Nc1nc2c(c3ncccc13)C(c1cccc(Cl)c1)Cc1ncccc1-2 (centres undefined) | 1.61 | 22.7
COC(=O)c1c2c(c(C)[n+]([O-])c1C)C(=O)C=C(NCc1cccc(OC)c1)C2=O | 0.257 | 0.797
COC(=O)c1ccc(=O)c2nc3/c(=C/O)c(O)cc(=O)c3[nH]c12 | 0.937 | 48.5
CC(CN)[C@@H]1CC[C@]2(CO)CC[C@]3(C)[C@H](CC[C@@H]4[C@@]5(C)CCC(NCCO)C(C)(C)[C@@H]5CC[C@]43C)[C@@H]12 (some centres undefined) | 1.48 | 3.08
